The record followed here is the supplement of paper PMC10627819.

Experiment in all cases: Bliss interaction score (quartile over a dose matrix) (fitness difference); higher = more antagonism (negative = synergy)
The test system of one assay is B. subtilis 168. The method, boiled down:
(§1)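 The Bliss score takes observed fitness and subtracts the expected fitness, calculated as a product of single-drug fitness values. Those single-drug values were inferred from the combination data. Fitness is OD595 at entry into stationary phase divided by the plate's robust no-drug mean, capped at 1, and the score is summarised by quartiles across technical, biological and donor/recipient replicates.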

The next assay relates to S. pneumoniae D39V. Summed up:
as §1

Another assay has as its system S. aureus Newman. The method, boiled down: as §1
A further assay concerns S. aureus DSM 20231. The method, boiled down:
as §1

Each structure is given as a SMILES string.
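Note: first quartile when negative (synergy) and third quartile when positive (antagonism).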

On to `CC(=O)Oc1ccccc1C(=O)O` [Acetylsalicylicacid] + CC[C@H](C)[C@H](N)C1=N[C@H](C(=O)N[C@@H](CC(C)C)C(=O)N[C@H](CCC(=O)O)C(=O)N[C@H](C(=O)N[C@H]2CCCCNC(=O)[C@H](CC(N)=O)NC(=O)[C@@H](CC(=O)O)NC(=O)[C@H](Cc3cnc[nH]3)NC(=O)[C@@H](Cc3ccccc3)NC(=O)[C@H]([C@@H](C)CC)NC(=O)[C@@H](CCCN)NC2=O)[C@@H](C)CC)CS1 [Bacitracin], for which the Bliss interaction score is 0.123 with B. subtilis 168 (main component drawn), 0.165 with S. pneumoniae D39V (main component drawn), -0.0752 with S. aureus Newman (main component drawn) and 0.0276 in the assay with S. aureus DSM 20231 (main component drawn).

Take `CC(=O)Oc1ccccc1C(=O)O` [Acetylsalicylicacid] + CN1C2=CC=CC=C2N=C3C1=CC=CC3=O [Pyocyanin]: the Bliss interaction score was -0.0887 with B. subtilis 168, -0.0649 with S. pneumoniae D39V, -0.0562 with S. aureus Newman and -0.0748 in the assay on S. aureus DSM 20231.

`CC(=O)Oc1ccccc1C(=O)O` [Acetylsalicylicacid] + CN(C)C(=O)C(CCN1CCC(O)(c2ccc(Cl)cc2)CC1)(c1ccccc1)c1ccccc1 [Loperamide]: the Bliss interaction score with B. subtilis 168 was 0.0636; with S. pneumoniae D39V it was 0.144; in the assay with S. aureus Newman, -0.0344; in the assay with S. aureus DSM 20231, 0.131.

Regarding `CC(=O)Oc1ccccc1C(=O)O` [Acetylsalicylicacid] + CN(C)[C@@H]1C(O)=C(C(N)=O)C(=O)[C@@]2(O)C(O)=C3C(=O)c4c(O)ccc(Cl)c4[C@@](C)(O)[C@H]3C[C@@H]12 [Clortetracycline], the Bliss interaction score in the assay on B. subtilis 168 was -0.311; with S. pneumoniae D39V it was -0.0497; in the assay with S. aureus Newman, -0.0574; in the assay with S. aureus DSM 20231 it was -0.101.

For the molecule `CC(=O)Oc1ccccc1C(=O)O` [Acetylsalicylicacid] + CN(C)c1cc(NC(=O)CNC(C)(C)C)c(O)c2c1C[C@H]1C[C@H]3[C@H](N(C)C)C(O)=C(C(N)=O)C(=O)[C@@]3(O)C(O)=C1C2=O [Tigecycline], the Bliss interaction score was -0.11 in the assay with B. subtilis 168, -0.0515 in the assay on S. pneumoniae D39V, -0.0593 in the assay on S. aureus Newman and -0.088 with S. aureus DSM 20231.

Turning to `CC(=O)Oc1ccccc1C(=O)O` [Acetylsalicylicacid] + CN(N=O)C(=O)N[C@@H](C=O)[C@@H](O)[C@H](O)[C@H](O)CO [Streptozotocin], the Bliss interaction score in the assay on B. subtilis 168 is 0.0788; in the assay on S. pneumoniae D39V, -0.0923; with S. aureus Newman it was 0.0716; with S. aureus DSM 20231, -0.0369.

In the case of `CC(=O)Oc1ccccc1C(=O)O` [Acetylsalicylicacid] + CN[C@@H]1[C@H](O)[C@H](NC)[C@H]2O[C@@]3(O)C(=O)C[C@@H](C)O[C@H]3O[C@@H]2[C@H]1O [Spectinomycin], the Bliss interaction score in the assay with B. subtilis 168 was 0.137; with S. pneumoniae D39V it was -0.0679; in the assay on S. aureus Newman, 0.0859; in the assay on S. aureus DSM 20231, -0.0696.

`CC(=O)Oc1ccccc1C(=O)O` [Acetylsalicylicacid] + CN[C@@H]1[C@H](O[C@H]2[C@H](O[C@H]3[C@H](O)[C@@H](O)[C@H](N=C(N)N)[C@@H](O)[C@@H]3N=C(N)N)O[C@@H](C)[C@]2(O)C=O)O[C@@H](CO)[C@H](O)[C@H]1O [Streptomycin]: the Bliss interaction score was 0.222 in the assay on B. subtilis 168, -0.0479 in the assay with S. pneumoniae D39V, 0.0762 in the assay on S. aureus Newman and -0.0889 with S. aureus DSM 20231.

Consider `CC(=O)Oc1ccccc1C(=O)O` [Acetylsalicylicacid] + CN[C@H](CC(C)C)C(=O)N[C@H]1C(=O)N[C@@H](CC(N)=O)C(=O)N[C@H]2C(=O)N[C@H]3C(=O)N[C@H](C(=O)N[C@H](C(=O)O)c4cc(O)cc(O)c4-c4cc3ccc4O)[C@H](O)c3ccc(c(Cl)c3)Oc3cc2cc(c3O[C@@H]2O[C@H](CO)[C@@H](O)[C@H](O)[C@H]2O[C@H]2C[C@](C)(N)[C@H](O)[C@H](C)O2)Oc2ccc(cc2Cl)[C@H]1O [Vancomycin], for which the Bliss interaction score in the assay on B. subtilis 168 was -0.0629; in the assay with S. pneumoniae D39V, 0.114; in the assay with S. aureus Newman it was 0.0599; in the assay with S. aureus DSM 20231, -0.0542.

Take `CC(=O)Oc1ccccc1C(=O)O` [Acetylsalicylicacid] + CN[C@H](CC(C)C)C(=O)N[C@H]1C(=O)N[C@@H](CC(N)=O)C(=O)N[C@H]2C(=O)N[C@H]3C(=O)N[C@H](C(=O)N[C@H](C(=O)O)c4cc(O)cc(O)c4-c4cc3ccc4O)[C@H](O[C@H]3C[C@](C)(N)[C@@H](O)[C@H](C)O3)c3ccc(c(Cl)c3)Oc3cc2cc(c3O[C@@H]2O[C@H](CO)[C@@H](O)[C@H](O)[C@H]2O[C@H]2C[C@](C)(NCc3ccc(-c4ccc(Cl)cc4)cc3)[C@@H](O)[C@H](C)O2)Oc2ccc(cc2Cl)[C@H]1O [Oritavancin]: the Bliss interaction score is -0.0215 with B. subtilis 168, 0.071 in the assay on S. pneumoniae D39V, 0.086 in the assay on S. aureus Newman and 0.0533 in the assay on S. aureus DSM 20231.

Consider `CC(=O)Oc1ccccc1C(=O)O` [Acetylsalicylicacid] + CO/N=C(\C(=O)N[C@@H]1C(=O)N2C(C(=O)O)=C(COC(C)=O)CS[C@H]12)c1csc(N)n1 [Cefotaxime], for which the Bliss interaction score in the assay with B. subtilis 168 is 0.172; in the assay with S. pneumoniae D39V it was 0.138; in the assay with S. aureus Newman it was -0.0434; with S. aureus DSM 20231, -0.1.

In the case of `CC(=O)Oc1ccccc1C(=O)O` [Acetylsalicylicacid] + CO/N=C(\C(=O)N[C@@H]1C(=O)N2C(C(=O)O)=C(COC(N)=O)CS[C@H]12)c1ccco1 [Cefuroxime], the Bliss interaction score is 0.177 in the assay with B. subtilis 168, 0.057 in the assay on S. pneumoniae D39V, 0.0943 with S. aureus Newman and -0.628 in the assay with S. aureus DSM 20231.

Turning to `CC(=O)Oc1ccccc1C(=O)O` [Acetylsalicylicacid] + CO/N=C(\C(=O)N[C@@H]1C(=O)N2C(C(=O)[O-])=C(C[N+]3(C)CCCC3)CS[C@H]12)c1csc(N)n1 [Cefepime], the Bliss interaction score with B. subtilis 168 turned out to be 0.167; in the assay on S. pneumoniae D39V it was 0.118; in the assay with S. aureus Newman, 0.0506; with S. aureus DSM 20231 it was 0.097.

In the case of `CC(=O)Oc1ccccc1C(=O)O` [Acetylsalicylicacid] + CO[C@@H]1[C@@H](OC(N)=O)[C@@H](O)[C@H](Oc2ccc3c(O)c(NC(=O)c4ccc(O)c(CC=C(C)C)c4)c(=O)oc3c2C)OC1(C)C [Novobiocin], the Bliss interaction score was -0.146 in the assay on B. subtilis 168, 0.123 with S. pneumoniae D39V, -0.0718 with S. aureus Newman and -0.068 in the assay on S. aureus DSM 20231.

As to `CC(=O)Oc1ccccc1C(=O)O` [Acetylsalicylicacid] + CO[C@@]12[C@H](COC(N)=O)C3=C(C(=O)C(C)=C(N)C3=O)N1C[C@@H]1N[C@@H]12 [MitomycinC], the Bliss interaction score in the assay on B. subtilis 168 was -0.0648; in the assay on S. pneumoniae D39V, 0.0652; in the assay with S. aureus Newman, -0.0274; in the assay on S. aureus DSM 20231 it was 0.0545.

Consider `CC(=O)Oc1ccccc1C(=O)O` [Acetylsalicylicacid] + CO[C@H]1/C=C/O[C@@]2(C)Oc3c(C)c(O)c4c(O)c(c(/C=N/N5CCN(C)CC5)c(O)c4c3C2=O)NC(=O)/C(C)=C\C=C\[C@H](C)[C@H](O)[C@@H](C)[C@@H](O)[C@@H](C)[C@H](OC(C)=O)[C@@H]1C [Rifampicin], for which the Bliss interaction score in the assay with B. subtilis 168 was 0.131; in the assay with S. pneumoniae D39V, 0.0476; in the assay on S. aureus Newman it was 0.036; with S. aureus DSM 20231, 0.0617.

Regarding `CC(=O)Oc1ccccc1C(=O)O` [Acetylsalicylicacid] + COc1c(N2C[C@@H]3CCCN[C@@H]3C2)c(F)cc2c(=O)c(C(=O)O)cn(C3CC3)c12 [Moxifloxacin], the Bliss interaction score is -0.0213 in the assay on B. subtilis 168, 0.0628 with S. pneumoniae D39V, 0.114 in the assay on S. aureus Newman and 0.114 in the assay on S. aureus DSM 20231.

`CC(=O)Oc1ccccc1C(=O)O` [Acetylsalicylicacid] + COc1cc(Cc2cnc(N)nc2N)cc(OC)c1OC [Trimethoprim]: the Bliss interaction score with B. subtilis 168 is 0.123; in the assay on S. pneumoniae D39V it was -0.163; in the assay on S. aureus Newman it was 0.0981; in the assay on S. aureus DSM 20231, -0.0672.

For `CC(=O)Oc1ccccc1C(=O)O` [Acetylsalicylicacid] + COc1ccc(C[C@H](N)C(=O)N[C@H]2[C@@H](O)[C@H](n3cnc4c(N(C)C)ncnc43)O[C@@H]2CO)cc1 [Puromycin], the Bliss interaction score was 0.0812 with B. subtilis 168, 0.149 in the assay on S. pneumoniae D39V, -0.0494 with S. aureus Newman and 0.0722 with S. aureus DSM 20231.

In the case of `CC(=O)Oc1ccccc1C(=O)O` [Acetylsalicylicacid] + COc1cccc2c1C(=O)c1c(O)c3c(c(O)c1C2=O)C[C@@](O)(C(=O)CO)C[C@@H]3O[C@H]1C[C@H](N)[C@H](O)[C@H](C)O1 [Doxorubicin], the Bliss interaction score is 0.225 in the assay on B. subtilis 168, 0.0551 in the assay on S. pneumoniae D39V, 0.0561 in the assay on S. aureus Newman and 0.0666 in the assay with S. aureus DSM 20231.

Regarding `CC(=O)Oc1ccccc1C(=O)O` [Acetylsalicylicacid] + C[C@@H]1O[C@@H]1P(=O)(O)O [Fosfomycin], the Bliss interaction score is -0.291 in the assay with B. subtilis 168, 0.119 with S. pneumoniae D39V, -0.0772 in the assay with S. aureus Newman and 0.0721 in the assay on S. aureus DSM 20231.

With `CC(=O)Oc1ccccc1C(=O)O` [Acetylsalicylicacid] + C[C@@H](O)[C@H]1C(=O)N2C(C(=O)O)=C(SCCNC=N)C[C@H]12 [Imipenem], the Bliss interaction score in the assay with B. subtilis 168 is -0.34; in the assay with S. pneumoniae D39V, 0.0958; in the assay on S. aureus Newman, 0.0337; in the assay with S. aureus DSM 20231 it was 0.0498.

As for `CC(=O)Oc1ccccc1C(=O)O` [Acetylsalicylicacid] + C[C@H]1COc2c(N3CCN(C)CC3)c(F)cc3c(=O)c(C(=O)O)cn1c23 [Levofloxacin], the Bliss interaction score in the assay on B. subtilis 168 was determined as 0.12; in the assay with S. pneumoniae D39V, 0.142; with S. aureus Newman it was 0.12; with S. aureus DSM 20231, 0.0854.

On to `CC(=O)Oc1ccccc1C(=O)O` [Acetylsalicylicacid] + C[C@H]1c2cccc(O)c2C(=O)C2=C(O)[C@]3(O)C(=O)C(C(N)=O)=C(O)[C@@H](N(C)C)[C@@H]3[C@@H](O)[C@@H]21 [Doxycycline], for which the Bliss interaction score with B. subtilis 168 is -0.164; in the assay on S. pneumoniae D39V, 0.1; with S. aureus Newman, 0.0416; in the assay with S. aureus DSM 20231, -0.0455.

For `CC(=O)Oc1ccccc1C(=O)O` [Acetylsalicylicacid] + C[n+]1ccc(-c2cc[n+](C)cc2)cc1 [Paraquat], the Bliss interaction score in the assay with B. subtilis 168 is 0.067; with S. pneumoniae D39V it was -0.0664; in the assay with S. aureus Newman, 0.0558; with S. aureus DSM 20231, 0.067.

Turning to `CC(=O)Oc1ccccc1C(=O)O` [Acetylsalicylicacid] + Cc1cc(NS(=O)(=O)c2ccc(N)cc2)no1 [Sulfamethoxazol], the Bliss interaction score was 0.0808 in the assay with B. subtilis 168, -0.0493 in the assay with S. pneumoniae D39V, -0.0624 in the assay on S. aureus Newman and -0.0892 in the assay with S. aureus DSM 20231.

Take `CC(=O)Oc1ccccc1C(=O)O` [Acetylsalicylicacid] + Cc1ncc([N+](=O)[O-])n1CCO [Metronidazole]: the Bliss interaction score in the assay with B. subtilis 168 was 0.203; in the assay on S. pneumoniae D39V it was 0.056; in the assay with S. aureus Newman it was -0.0652; with S. aureus DSM 20231 it was 0.0605.

For the molecule `CC(=O)Oc1ccccc1C(=O)O` [Acetylsalicylicacid] + Cc1onc(-c2ccccc2)c1C(=O)N[C@@H]1C(=O)N2[C@@H]1SC(C)(C)[C@@H]2C(=O)O [Oxacillin], the Bliss interaction score worked out at 0.0506 with B. subtilis 168, 0.0623 in the assay on S. pneumoniae D39V, 0.0916 in the assay on S. aureus Newman and 0.113 with S. aureus DSM 20231.

`CC(=O)Oc1ccccc1C(=O)O` [Acetylsalicylicacid] + Clc1ccc(COC(Cn2ccnc2)c2ccc(Cl)cc2Cl)c(Cl)c1 [Miconazole]: the Bliss interaction score is 0.0955 with B. subtilis 168, -0.0711 in the assay on S. pneumoniae D39V, 0.0722 with S. aureus Newman and 0.0658 in the assay with S. aureus DSM 20231.
